One experiment deals with Porcine Smooth Muscle Cell. Nature of the experiment: Effects of Compounds on Cell Proliferation Using 3H Thymidine Incorporation. The class given is cell-based. As to conditions: @ 50 μM, control (100%) = maximally stimulated cells. The procedure: Effects of Compounds on Cell Proliferation Using ^3H Thymidine Incorporation
Human and porcine smooth muscle cells were tested in early passage (generally passage 3-7) at sub-confluent conditions. Cultures were grown in 16 mm (24 well) multi-well culture dishes in medium 199 supplemented with 10% fetal bovine serum and 2% antibiotic/antimycotic. At sub-confluence, the cells were placed in a defined serum free medium (AIM-V; Gibco) for 24-48 h prior to initiating the experimental protocol.
Compounds were added to each well at 50 fold dilution (20 μL/well) and the plates were incubated for 24-36 h at 37° C. in 5% CO2. Compounds were initially dissolved in 50% ethanol and serially diluted into media. Compounds were routinely evaluated at concentrations from 1 to 100 μM. As a control, grade II porcine intestinal mucosal heparin (sodium salt) was routinely evaluated in all cell preparations at concentrations from 0.1 to 100 μg/mL.
At the completion of the test procedure, plates were placed on ice, washed three times with ice cold phosphate buffered saline (PBS) and incubated in ice cold 10% trichloroacetic acid (TCA) got 30 min to remove acid soluble proteins. Solution was transferred to scintillation vials containing 0.4 N HCl (500 μL/vial to neutralize NaOH) and each well was rinsed two times with water (500 μL) for a total volume of 2 mL/vial.
Data was obtained, in triplicate, for both control and experimental samples. Control (100%) data was obtained from maximally stimulated cells, as the result of growth factor or serum stimulation. Experimental data was obtained from cells maximally stimulated with growth factor or serum and treated with compound. Data are expressed as an IC50 or percent inhibition in Table I below.
In general terms: Incorporation of labelled thymidine or its analogues reports DNA synthesis.
Regarding `CCOCC[C@@H]1OC[C@H]2O[C@H](O[C@H]3[C@H](O)[C@@H](O)[C@H](OCc4ccc(Cl)c(NC(C)=O)c4)O[C@@H]3CO)[C@H](O)[C@@H](O)[C@@H]2O1` [Example 20, N-{2-Chloro-5-[(4′,6′-O-((1R)-3-ethoxy-propylidene)-β-D-maltosyloxy)-methyl]-phenyl}-acetamide], the “Porcine Smooth Muscle Cell Antiproliferation, percent inhibition” value is 48% @ 50.

The experiment is the same for the next values; noted with them: serum/growth factor stimulated cells, 24-36 h incubation, read-out: Porcine Smooth Muscle Cell Antiproliferation IC50.
In the case of `O=C(Nc1cc(COC2OC(COC(=O)c3ccc(I)cc3)C(OC3OC4COC(c5ccccc5)OC4C(O)C3O)C(O)C2O)ccc1Cl)c1ccc(C(=O)c2ccccc2)cc1` [Example 74, 4-Benzoyl-N-{5-[(4′,6′-O-benzylidene-6-(4-iodo-benzoyl)-oxy-β-D-maltosyl)-oxy-methyl]-2-chloro-phenyl}-benzoic acid amide], the IC50 turned out to be 1220 nM. Same read-out and setting: the same measure for `CC(=O)Nc1cc(CO[C@@H]2O[C@H](CO)[C@@H](O[C@H]3O[C@@H]4COC(c5ccccc5)O[C@H]4[C@H](O)[C@H]3O)[C@H](O)[C@H]2O)ccc1Cl` (stereo partly drawn) [Example 24, N-{5-[(4′,6′-O-Benzylidene-β-D-maltosyloxy)-methyl]-2-chloro-phenyl}-acetamide]: 6600 nM; for `CC(=O)Nc1cc(COC2OC(COC(=O)Cc3ccccc3)C(OC3OC4COC(c5ccccc5)OC4C(OC(C)=O)C3OC(C)=O)C(OC(C)=O)C2OC(C)=O)ccc1Cl` [Example 47, (R)-N-[2-Chloro-5-[[[2,3-di-O-acetyl-4-O-[2,3-di-O-acetyl-4,6-O-(phenylmethylene)-α-D-glucopyranosyl]-6-O-(phenylacetyl)-β-D-glucopyranosyl]-oxy]methyl]phenyl]acetamide]: 78 nM. On the same count and under the same terms, in the case of `O=C(Nc1cc(COC2OC(COC(=O)c3ccccc3)C(OC3OC4COC(c5ccccc5)OC4C(O)C3O)C(O)C2O)ccc1Cl)c1ccc(C(=O)c2ccccc2)cc1` [Example 71, 4-Benzoyl-N-{5-[(6-benzoyl-oxy-4′,6′-O-benzylidene-β-D-maltosyl)-oxy-methyl]-2-chloro-phenyl}-benzoic acid amide] it was 50 nM; in that of `CC(=O)Nc1cc(CO[C@@H]2O[C@H](COC(=O)c3ccccc3)[C@@H](O[C@H]3O[C@@H]4COC(c5ccc([N+](=O)[O-])cc5)O[C@H]4[C@H](O)[C@H]3O)[C@H](O)[C@H]2O)ccc1Cl` (stereo partly drawn) [Example 11, N-(5-{[6-O-Benzoyl-4′,6′-O-(4-nitro)-benzylidene-β-D-maltosyl]-oxy-methyl}-2-chloro-phenyl)-acetamide], 3 nM; in that of `CC(=O)OCC1OC(OCc2ccc(C)c(N(C(C)=O)C(C)=O)c2)C(OC(C)=O)C(OC(C)=O)C1OC1OC2COC(c3ccccc3)OC2C(OC(C)=O)C1OC(C)=O` [Example 58, N-Acetyl-{5-[(2,2′,3,3′,6-penta-O-acetyl-4′,6′-O-benzylidene-β-D-maltosyl)-oxy-methyl]-2-methyl-phenyl}acetamide], 600 nM.

Regarding `CC(=O)Nc1cc(CO[C@@H]2O[C@H](COc3ccccc3)[C@@H](O[C@H]3O[C@@H]4COC(c5ccccc5)O[C@H]4[C@H](O)[C@H]3O)[C@H](O)[C@H]2O)ccc1Cl` (stereo partly drawn) [Example 60, N-{5-[(4′,6′-O-Benzylidene-6-O-phenyl-β-D-maltosyl)-oxy-methyl]-2-chloro-phenyl}-acetamide], the IC50 was found to be 38 nM.

As to `COC(=O)Nc1cc(COC2OC(COC(=O)c3ccccc3)C(OC3OC4COC(c5ccccc5)OC4C(O)C3O)C(O)C2O)ccc1Cl` [Example 81, N-{5-[(6-O-Benzoyl-4′,6′-O-benzylidene-β-D-maltosyl)-oxy-methyl]-2-chloro-phenyl}-carbamic acid methyl ester], the IC50 came to 14 nM. The same measure, in the same setting: in the case of `CC(=O)Nc1cc(COC2OC(COC(=O)c3ccc(Cl)c([N+](=O)[O-])c3)C(OC3OC4COC(c5ccccc5)OC4C(O)C3O)C(O)C2O)ccc1Cl` [Example 38, (R)-N-[2-Chloro-5-[[[6-O-(4-chloro-3-nitrobenzoyl)-4-O-[4,6O-(phenylmethylene)-α-D-glucopyranosyl]-β-D-glucopyranosyl]oxy]methyl]phenyl]acetamide] it was 187 nM; in that of `CC(=O)Nc1cc(COC2OC(COC(=O)c3ccccc3I)C(OC3OC4COC(c5ccccc5)OC4C(O)C3O)C(O)C2O)ccc1Cl` [Example 43, N-{5-[(4′,6′-O-Benzylidene-6-O-(2-iodo)-benzoyl-β-D-maltosyl)-oxy-methyl]-2-chloro-phenyl)-acetamide], 8 nM; in that of `O=C(OCC1OC(SCc2ccc(Cl)c([N+](=O)[O-])c2)C(O)C(O)C1OC1OC2COC(c3ccccc3)OC2C(O)C1O)c1ccccc1` [Example 87, (4-Chloro-3-nitro-benzyl) 6-O-benzoyl-4′,6′-O-benzoyl-4′,6′-O-benzylidene-1-thio-β-D-maltoside], 31 nM. Same read-out and setting: in the case of `CC(=O)Nc1cc(COC2OC(COC(=O)c3ccc([N+](=O)[O-])cc3)C(OC3OC4COC(c5ccccc5)OC4C(O)C3O)C(O)C2O)ccc1Cl` [Example 41, (R)-N-[2-Chloro-5-[[[6-O-(4-nitrobenzoyl)-4-O-[4,6O-(phenylmethylene)-α-D-glucopyranosyl]-β-D-glucopyranosyl]oxy]methyl]phenyl]acetamide] it was 273 nM; in that of `CC(=O)Nc1cc(COC2OC(COC(=O)c3cccc(C(F)(F)F)c3)C(OC3OC4COC(c5ccccc5)OC4C(O)C3O)C(O)C2O)ccc1Cl` [Example 42, (R)-N-[2-Chloro-5-[[[6-O-(3-trifluoromethylbenzoyl)-4-O-[4,6O-(phenyl-methylene)-α-D-glucopyranosyl]-β-D-glucopyranosyl]oxy]methyl]phenyl]acetamide], 27 nM.

For “N-{5-[(6-O-Benzyl-4′,6′-O-ethylidene-β-D-maltosyl)-oxy-methyl]-2-chloro-phenyl}-acetamide [Example 9]”, the IC50 was 83 nM.

Regarding `CC(=O)Nc1cc(COC2OC(COS(=O)(=O)c3ccc(C)cc3)C(OC3OC4COC(c5ccccc5)OC4C(O)C3O)C(O)C2O)ccc1Cl` [Example 6, N-(5-{[4′,6′-O-Benzylidene-6-O-(4-toluenesulfonyl)-β-D-maltosyl]-oxy-methyl}2-chloro-phenyl)-acetamide], the IC50 was found to be 133 nM. On to `CC(=O)N(C)c1cc(COC2OC(COC(=O)c3ccccc3)C(OC3OC4COC(c5ccccc5)OC4C(O)C3O)C(O)C2O)ccc1Cl` [Example 79, N-{5-[(6-O-Benzoyl-4′,6′-O-benzylidene-β-D-maltosyl)-oxymethyl]-2-chloro-phenyl}-N-methyl-acetamide], for which the IC50 amounted to 2360 nM.

Turning to `CC(=O)Nc1cc(COC2OC(CO)C(OC3OC4COC(c5ccccc5)OC4C(O)C3O)C(O)C2O)ccc1C` [Example 57, N-{5-[(4′,6′-O-Benzylidene-β-D-maltosyl)-oxy-methyl]-2-methyl-phenyl}-acetamide], the IC50 amounted to 8900 nM. In the case of `CC(=O)Nc1cc(COC2OC(COC(=O)c3ccccc3)C(OC3OC4COC(c5ccc(Cl)cc5)OC4C(O)C3O)C(O)C2O)ccc1Cl` [Example 13, N-{1 5-[(6-O-Benzoyl-4′,6′-O-(4-chloro)-benzylidene-β-D-maltosyl)-oxy-methyl]-2-chloro-phenyl}-acetamide], the IC50 was found to be 23 nM.

On to `CCC1OCC2OC(OC3C(COC(=O)c4ccccc4)OC(OCc4ccc(Cl)c(NC(C)=O)c4)C(O)C3O)C(O)C(O)C2O1` [Example 5, N-{5-[(6-O-Benzoyl-4′,6′-O-propylidene-β-D-maltosyl)-oxy-methyl]-2-chloro-phenyl}-acetamide], for which the IC50 turned out to be 37 nM. Same read-out and setting: in the case of `O=C(Nc1cc(CO[C@@H]2O[C@H](COC(=O)c3ccccc3)[C@@H](O[C@H]3O[C@@H]4CO[C@@H](c5ccccc5)O[C@H]4[C@H](O)[C@H]3O)[C@H](O)[C@H]2O)ccc1Cl)c1cccnc1` [Example 62, (R)-N-[5-[[[6-O-Benzoyl-4-O-[4′,6′-O-(phenylmethylene)-α-D-glucopyranosyl]-β-D-glucopyranosyl]oxy]methyl]-2-chlorophenyl]-3-pyridinecarboxamide] it was 23 nM; in that of `O=C(Nc1cc(CO[C@@H]2O[C@H](COC(=O)c3ccccc3I)[C@@H](O[C@H]3O[C@@H]4COC(c5ccccc5)O[C@H]4[C@H](O)[C@H]3O)[C@H](O)[C@H]2O)ccc1Cl)c1ccc(C(=O)c2ccccc2)cc1` (stereo partly drawn) [Example 72, 4-Benzoyl-N-{5-[(4′,6′-O-benzylidene-6-O-(2-iodo)-benzoyl-β-D-maltosyl)-oxy-methyl]-2-chloro-phenyl}-benzamide], 16 nM; in that of `CC(=O)Nc1cc(COC2OC(COC(=O)CCCc3ccccc3)C(OC3OC4COC(c5ccccc5)OC4C(O)C3O)C(O)C2O)ccc1Cl` [Example 49, N-{5-[(4′,6′-O-Benzylidene-6-O-phenyl-propyl-carboxyl-β-D-maltosyl)-oxy-methyl]-2-chloro-phenyl}-acetamide], 104 nM. Still for that read-out and setting: the same measure for `C=CCCC(=O)Nc1cc(COC2OC(CO)C(OC3OC4COC(c5ccccc5)OC4C(O)C3O)C(O)C2O)ccc1Cl` [Example 65, N-{2-Chloro-5-[(4′,6′-O-benzylidene-β-D-maltosyl)-oxy-methyl]-phenyl}-pent-4-enamide]: 17800 nM; for `O=C(Nc1cc(COC2OC(CO)C(OC3OC4COC(c5ccccc5)OC4C(O)C3O)C(O)C2O)ccc1Cl)c1ccc(C(=O)c2ccccc2)cc1` [Example 70, 4-Benzoyl-N-{5-[(4′,6′-O-benzylidene-β-D-maltosyl)-oxy-methyl]-2-chloro-phenyl}-benzamide]: 9940 nM.

(Values after patent US6340670B1, “Acetal benzylmaltosides as inhibitors of smooth muscle cell proliferation” (American Home Products Corporation, priority 1998, dated 2002).)
